Assay results: BindingDB's records for doi:10.1007/bf00168557 (Boehringer Ingelheim Italia, 1995)
Several values for one entry are separate records, joined by “and”; a condition that tells them apart may be missing. Equal values may be shown once.

Experiments:
[1] = molecular target: T1, Alpha-1A adrenergic receptor (Rattus norvegicus, UniProt P43140)
T1 sequence (P43140 whole entry): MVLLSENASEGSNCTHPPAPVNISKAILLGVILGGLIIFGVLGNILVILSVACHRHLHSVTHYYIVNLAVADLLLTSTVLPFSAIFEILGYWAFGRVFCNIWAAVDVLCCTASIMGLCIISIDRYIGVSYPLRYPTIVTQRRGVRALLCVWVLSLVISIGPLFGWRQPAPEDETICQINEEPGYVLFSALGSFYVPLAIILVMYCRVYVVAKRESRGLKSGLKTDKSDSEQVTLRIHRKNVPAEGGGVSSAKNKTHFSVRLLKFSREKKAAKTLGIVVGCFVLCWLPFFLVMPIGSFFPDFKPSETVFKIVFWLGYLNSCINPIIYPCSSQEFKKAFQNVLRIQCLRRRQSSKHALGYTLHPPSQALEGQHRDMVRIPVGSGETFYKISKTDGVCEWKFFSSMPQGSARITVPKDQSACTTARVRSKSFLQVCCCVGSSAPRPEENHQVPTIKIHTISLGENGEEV

[2] = molecular target: 5-hydroxytryptamine receptor 4 (Rattus norvegicus, UniProt Q62758)
5-hydroxytryptamine receptor 4, sequence (Q62758 whole entry): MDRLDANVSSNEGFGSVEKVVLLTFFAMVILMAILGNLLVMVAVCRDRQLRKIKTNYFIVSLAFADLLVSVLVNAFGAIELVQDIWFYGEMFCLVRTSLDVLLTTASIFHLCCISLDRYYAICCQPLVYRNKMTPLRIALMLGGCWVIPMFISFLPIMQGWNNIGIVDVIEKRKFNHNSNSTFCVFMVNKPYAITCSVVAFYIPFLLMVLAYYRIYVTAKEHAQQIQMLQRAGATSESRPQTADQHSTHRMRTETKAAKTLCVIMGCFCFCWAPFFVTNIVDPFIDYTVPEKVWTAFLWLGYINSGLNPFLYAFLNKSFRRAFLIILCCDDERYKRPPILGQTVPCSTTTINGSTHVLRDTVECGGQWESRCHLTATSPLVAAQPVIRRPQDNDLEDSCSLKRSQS

[3] = molecular target: T2, 5-hydroxytryptamine receptor 3A (Rattus norvegicus, UniProt P35563)
T2 sequence (P35563 whole entry): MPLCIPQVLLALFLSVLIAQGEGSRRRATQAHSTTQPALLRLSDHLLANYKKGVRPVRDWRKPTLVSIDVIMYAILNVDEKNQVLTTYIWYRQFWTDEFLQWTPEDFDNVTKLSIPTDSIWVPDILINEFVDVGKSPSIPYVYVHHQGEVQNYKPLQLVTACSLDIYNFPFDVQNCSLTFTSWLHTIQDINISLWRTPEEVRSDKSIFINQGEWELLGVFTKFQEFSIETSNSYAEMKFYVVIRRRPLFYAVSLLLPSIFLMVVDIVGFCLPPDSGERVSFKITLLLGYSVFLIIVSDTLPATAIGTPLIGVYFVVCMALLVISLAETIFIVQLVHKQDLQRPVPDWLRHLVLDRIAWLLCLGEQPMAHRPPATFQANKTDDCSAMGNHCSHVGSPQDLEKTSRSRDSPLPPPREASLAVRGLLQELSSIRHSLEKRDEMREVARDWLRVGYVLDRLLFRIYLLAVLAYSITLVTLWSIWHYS

[4] = molecular target: T3, 5-hydroxytryptamine receptor 2C (Rattus norvegicus, UniProt P08909)
T3 sequence (P08909 whole entry): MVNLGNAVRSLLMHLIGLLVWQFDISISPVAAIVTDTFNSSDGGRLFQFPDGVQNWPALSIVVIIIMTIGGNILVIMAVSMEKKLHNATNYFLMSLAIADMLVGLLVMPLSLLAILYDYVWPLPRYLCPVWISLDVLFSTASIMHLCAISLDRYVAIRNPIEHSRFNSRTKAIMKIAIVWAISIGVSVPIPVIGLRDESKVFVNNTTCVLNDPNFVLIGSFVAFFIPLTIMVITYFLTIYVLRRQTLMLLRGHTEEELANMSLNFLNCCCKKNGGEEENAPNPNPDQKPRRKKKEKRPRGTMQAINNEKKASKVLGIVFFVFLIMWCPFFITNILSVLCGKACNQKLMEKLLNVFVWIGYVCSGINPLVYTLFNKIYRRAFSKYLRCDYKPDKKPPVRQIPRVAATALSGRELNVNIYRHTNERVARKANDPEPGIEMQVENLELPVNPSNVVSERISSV

[5] = molecular target: T4, 5-hydroxytryptamine receptor 1A (Rattus norvegicus, UniProt P19327)
T4 sequence (P19327 whole entry): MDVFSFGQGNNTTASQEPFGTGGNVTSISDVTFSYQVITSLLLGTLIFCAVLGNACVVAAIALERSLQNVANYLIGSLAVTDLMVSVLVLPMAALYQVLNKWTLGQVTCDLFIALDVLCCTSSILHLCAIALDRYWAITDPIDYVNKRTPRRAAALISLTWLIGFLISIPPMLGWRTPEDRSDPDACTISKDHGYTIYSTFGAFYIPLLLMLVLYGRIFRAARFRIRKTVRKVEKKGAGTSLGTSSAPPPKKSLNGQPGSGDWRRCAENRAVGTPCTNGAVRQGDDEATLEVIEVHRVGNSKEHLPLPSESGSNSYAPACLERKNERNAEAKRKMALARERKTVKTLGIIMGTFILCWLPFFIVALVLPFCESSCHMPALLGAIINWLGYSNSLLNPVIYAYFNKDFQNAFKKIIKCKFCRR

[6] = molecular target: 5-hydroxytryptamine receptor 1B (Rattus norvegicus, UniProt P28564)
5-hydroxytryptamine receptor 1B, sequence (P28564 whole entry): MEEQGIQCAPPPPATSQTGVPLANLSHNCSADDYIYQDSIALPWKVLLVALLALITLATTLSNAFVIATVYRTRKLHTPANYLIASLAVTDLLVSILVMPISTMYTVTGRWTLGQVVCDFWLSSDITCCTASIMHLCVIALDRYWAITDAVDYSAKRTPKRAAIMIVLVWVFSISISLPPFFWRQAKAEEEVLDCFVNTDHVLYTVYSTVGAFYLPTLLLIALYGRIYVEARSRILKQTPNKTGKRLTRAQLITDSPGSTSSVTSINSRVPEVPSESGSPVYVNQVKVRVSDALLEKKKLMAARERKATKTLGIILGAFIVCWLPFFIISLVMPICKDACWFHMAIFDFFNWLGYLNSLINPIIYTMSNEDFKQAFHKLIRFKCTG

[7] = molecular target: 5-hydroxytryptamine receptor 1D (Rattus norvegicus, UniProt P28565)
5-hydroxytryptamine receptor 1D, sequence (P28565 whole entry): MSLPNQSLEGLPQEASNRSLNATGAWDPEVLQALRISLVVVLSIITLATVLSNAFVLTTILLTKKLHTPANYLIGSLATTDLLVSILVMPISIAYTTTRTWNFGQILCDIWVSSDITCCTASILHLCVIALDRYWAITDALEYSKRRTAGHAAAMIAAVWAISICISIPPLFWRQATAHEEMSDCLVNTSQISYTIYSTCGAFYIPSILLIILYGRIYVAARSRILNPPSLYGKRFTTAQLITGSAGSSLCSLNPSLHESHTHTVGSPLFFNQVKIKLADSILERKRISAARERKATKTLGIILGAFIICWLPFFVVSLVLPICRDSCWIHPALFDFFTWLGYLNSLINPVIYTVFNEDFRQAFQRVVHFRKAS

Compound | Ki [2] | Ki [3] | Ki [7] | also measured
COc1cccc(OC)c1OCCNCC1Oc2ccccc2OC1c1ccccc1 (centres undefined) [NSC_185453] |  |  |  | Ki [1]: 0.3 nM
CCn1c(=O)n(C(=O)NC2CC3CCC(C2)N3C)c2ccccc21 (centres undefined) [BIMU 1] | 0.19 nM |  |  | 
O=c1[nH]c2ccccc2n1CCN1CCN(c2ccc(C(F)(F)F)cc2)CC1 [CAS_127941] | > 10000 nM | > 10000 nM | 2510 nM | Ki [4]: 3980 nM; Ki [5]: 47.9 nM and 19.1 nM; Ki [6]: 2090 nM
CN1C2CCC1CC(OC(=O)c1cc(Cl)cc(Cl)c1)C2 (centres undefined) [MDL 72222] |  | 0.8 nM |  | 
CCCN(CCC)C1CCc2cccc(O)c2C1 (centres undefined) | > 10000 nM | > 10000 nM |  | 
O=C1CC2(CCCC2)CC(=O)N1CCCCN1CCN(c2ncccn2)CC1 [BUSPAR] | > 10000 nM | > 10000 nM | > 10000 nM | 
